According to ChEMBL document CHEMBL5375981, “Enhanced Tumor Targeting and Penetration of Proteolysis-Targeting Chimeras through iRGD Peptide Conjugation: A Strategy for Precise Protein Degradation in Breast Cancer” (J Med Chem, 2023):
In brackets after ≈: the same amount, converted by molar mass. Values belong to the molecule of their own block, whether it stands above or below them. Activity calls are given as the source filed them. No cut-off for these calls is given here.

Experiments:
[1] = biological target: Bromodomain-containing protein 4 (Homo sapiens) (UniProt O60885); test: Induction of BRD4 degradation in human L02 cells lacking integrin alphaVbeta3 expression at 0.01 to 1 uM incubated for 24 hrs by Western blot analysis; format: cell-based; conditions: dose 0.01-1 µM
[2] = Solubility in distilled water measured for 30 mins by ultraviolet spectrophotometry analysis; format: physicochemical
[3] = Drug release in PBS assessed as increase in (2S)-1-((R)-2-(tert-butyl)-17-((S)-4-(4-chlorophenyl)-2,3,9-trimethyl-6H-thieno[3,2-f][1,2,4]triazolo[4,3-a][1,4]diazepin-6-yl)-4,16-dioxo-6,9,12-trioxa-3,15-diazaheptadecanoyl)-4-hydroxy-N-((S)-1-(4-(4-methylthiazol-5-yl)phenyl)ethyl)pyrrolidine-2-carboxamide concentration at 50 uM in presence of GSH by LC-MS analysis; format: ADME; conditions: buffer, TDE = time-dependent effect
[4] = biological target: Bromodomain-containing protein 4 (Homo sapiens) (UniProt O60885); test: Induction of BRD4 degradation in human MCF7 cells harboring low integrin alphaVbeta3 expression at 300 nM incubated for 12 hrs by immunofluorescence staining based confocal microscopic analysis; format: cell-based
[5] = biological target: Bromodomain-containing protein 4 (Homo sapiens) (UniProt O60885); test: Induction of BRD4 degradation in human MDA-MB-231 cells harboring high integrin alphaVbeta3 expression at 300 nM incubated for 16 to 20 hrs by Western blot analysis; format: cell-based; conditions: time 16-20 hrs
MCF7 [6] = test: Antiproliferative activity against human MCF7 cells harboring low integrin alphaVbeta3 expression assessed as inhibition of cell growth incubated for 72 hrs by CCK-8 assay; format: functional, cell-based; conditions: MCF7, 72 h
MDA-MB-231 [7] = test: Antiproliferative activity against human MDA-MB-231 cells harboring high integrin alphaVbeta3 expression assessed as inhibition of cell growth incubated for 72 hrs by CCK-8 assay; format: functional, cell-based; conditions: MDA-MB-231, 72 h
[8] = biological target: Bromodomain-containing protein 4 (Homo sapiens) (UniProt O60885); test: Induction of BRD4 degradation in human MCF7 cells harboring low integrin alphaVbeta3 expression at 0.01 to 1 uM incubated for 24 hrs by Western blot analysis; format: cell-based; conditions: dose 0.01-1 µM
[9] = biological target: Bromodomain-containing protein 4 (Homo sapiens) (UniProt O60885); test: Induction of BRD4 degradation in human L02 cells lacking integrin alphaVbeta3 expression at 300 nM incubated for 12 hrs by immunofluorescence staining based confocal microscopic analysis; format: cell-based
L02 [10] = test: Antiproliferative activity against human L02 cells harboring minimal integrin alphaVbeta3 expression assessed as inhibition of cell growth incubated for 72 hrs by CCK-8 assay; format: functional, cell-based; conditions: L02, 72 h
[11] = biological target: Bromodomain-containing protein 4 (Homo sapiens) (UniProt O60885); test: Induction of BRD4 degradation in human MDA-MB-231 cells harboring high integrin alphaVbeta3 expression at 1 uM incubated for 12 hrs by immunofluorescence staining based confocal microscopic analysis; format: cell-based
[12] = biological target: Bromodomain-containing protein 4 (Homo sapiens) (UniProt O60885); test: Induction of BRD4 degradation in human MDA-MB-231 cells harboring high integrin alphaVbeta3 expression at 0.11 uM incubated for 24 hrs by Western blot analysis; format: cell-based
[13] = Stability of compound in PBS containing 5% serum at 50 uM measured after 72 hrs by LC-MS analysis; format: physicochemical, cell-free; conditions: read-out: Stability
MDA-MB-231 [14] = test: Antitumor activity against human MDA-MB-231 cells xenografted in BALB/C nude mouse assessed as disruption of tumor blood vessel wall at 5 uM, iv administered every other day and measured after 21 days by H and E staining based assay; format: functional, organism-based; conditions: time 21.0 day
[15] = Toxicity in BALB/C mouse xenografted with human MDA-MB-231 cells assessed as effect on spleen weight at 5 uM, iv administered every other day for 21 days; format: organism-based; conditions: in vivo, 504 h, time 21 day
[16] = biological target: Bromodomain-containing protein 4 (Homo sapiens) (UniProt O60885); test: Induction of BRD4 degradation in human MCF7 cells harboring low integrin alphaVbeta3 expression at 0.04 uM incubated for 24 hrs by Western blot analysis; format: cell-based
[17] = biological target: Bromodomain-containing protein 4 (Homo sapiens) (UniProt O60885); test: Induction of BRD4 degradation in human MCF7 cells harboring low integrin alphaVbeta3 expression at 0.11 uM incubated for 24 hrs by Western blot analysis relative to control; format: cell-based
L02 [18] = test: Antimigratory activity against human L02 cells lacking integrin alphaVbeta3 expression assessed as inhibition of cell migration at 200 nM incubated for 48 hrs by crystal violet staining based transwell assay; format: functional
[19] = biological target: Bromodomain-containing protein 4 (Homo sapiens) (UniProt O60885); test: Induction of BRD4 degradation in human MDA-MB-231 cells harboring high integrin alphaVbeta3 expression at 300 nM measured at 24 hrs by Western blot analysis; format: cell-based
[20] = Toxicity in BALB/C mouse xenografted with human MDA-MB-231 cells assessed as effect on kidney weight at 5 uM, iv administered every other day for 21 days; format: organism-based; conditions: in vivo, 504 h, time 21 day
[21] = biological target: Bromodomain-containing protein 4 (Homo sapiens) (UniProt O60885); test: Induction of BRD4 degradation in human MCF7 cells harboring low integrin alphaVbeta3 expression at 300 nM measured at 16 hrs by Western blot analysis; format: cell-based
[22] = biological target: Bromodomain-containing protein 4 (Homo sapiens) (UniProt O60885); test: Induction of BRD4 degradation in human MCF7 cells harboring low integrin alphaVbeta3 expression at 300 nM measured at 20 hrs by Western blot analysis relative to control; format: cell-based
[23] = biological target: Bromodomain-containing protein 4 (Homo sapiens) (UniProt O60885); test: Induction of BRD4 degradation in human L02 cells lacking integrin alphaVbeta3 expression at 0.33 uM incubated for 24 hrs by Western blot analysis relative to control; format: cell-based
[24] = Toxicity in BALB/C mouse xenografted with human MDA-MB-231 cells assessed as lung damage at 5 uM, iv administered every other day for 21 days and measured 37 days post treatment by H and E staining based assay; format: organism-based; conditions: in vivo, 1392 h, time 58 day
[25] = Toxicity in BALB/C mouse xenografted with human MDA-MB-231 cells assessed as adverse reactions at 5 uM, iv administered for 21 days and measured every 3 days; format: organism-based; conditions: in vivo, 504 h, time 21 day
[26] = Toxicity in BALB/C mouse xenografted with human MDA-MB-231 cells assessed as effect on heart weight at 5 uM, iv administered every other day for 21 days; format: organism-based; conditions: in vivo, 504 h, time 21 day
[27] = Antitumor activity against patient-derived Breast cancer organoid assessed as inhibition of cell growth incubated for approximately 3 to 5 days by CCK-8 assay; format: functional, tissue-based; conditions: Homo sapiens
MDA-MB-231 [28] = test: Antitumor activity against human MDA-MB-231 cells xenografted in BALB/C nude mouse assessed as tumor growth inhibition at 5 uM, iv administered every other day and measured after 21 days by vernier caliper method relative to control; format: functional; conditions: MDA-MB-231, 504 h, time 21 day, read-out: TGI
[29] = Toxicity in BALB/C mouse xenografted with human MDA-MB-231 cells assessed as effect on liver weight at 5 uM, iv administered every other day for 21 days; format: organism-based; conditions: in vivo, 504 h, time 21 day
[30] = Toxicity in BALB/C mouse xenografted with human MDA-MB-231 cells assessed as effect on lung weight at 5 uM, iv administered every other day for 21 days; format: organism-based; conditions: in vivo, 504 h, time 21 day
MCF7 [31] = test: Antimigratory activity against human MCF7 cells harboring low integrin alphaVbeta3 expression assessed as inhibition of cell migration at 200 nM incubated for 48 hrs by crystal violet staining based transwell assay; format: functional
[32] = Toxicity in BALB/C mouse xenografted with human MDA-MB-231 cells assessed as weight loss at 5 uM, iv administered for 21 days and measured every 3 days; format: organism-based; conditions: in vivo, 504 h, time 21 day
[33] = biological target: Bromodomain-containing protein 4 (Homo sapiens) (UniProt O60885); test: Induction of BRD4 degradation in human L02 cells lacking integrin alphaVbeta3 expression at 300 nM measured at 24 hrs by Western blot analysis relative to control; format: cell-based

Structure (SMILES): Cc1ncsc1-c1ccc([C@H](C)NC(=O)[C@@H]2C[C@@H](OC(=O)OCCSSCCOC(=O)CCC(=O)N[C@@H](CCCNC(=N)N)C(=O)NCC(=O)N[C@@H](CC(=O)O)C(=O)O)CN2C(=O)[C@@H](NC(=O)COCCOCCOCCNC(=O)C[C@@H]2N=C(c3ccc(Cl)cc3)c3c(sc(C)c3C)-n3c(C)nnc32)C(C)(C)C)cc1
Activity [1]: inactive
solubility at 0.5 h [2]: > 10 mM
Drug metabolism [3]: Tde
Activity [4]: inactive
Activity [5]: Active
IC50 (MCF7 [6]): 0.19 µM
IC50 (MDA-MB-231 [7]): 0.19 µM
Activity [8]: inactive
Activity [9]: inactive
IC50 (L02 [10]): 0.98 µM
Activity [11]: Active
Activity [12]: Active
remaining at 72 h, 50 µM [13]: 94.6%

solubility at 0.5 h [2]: > 10 mM
remaining at 72 h, 50 µM [13]: 10.2%
Structure (SMILES): Cc1ncsc1-c1ccc([C@H](C)NC(=O)[C@@H]2C[C@@H](OC(=O)CCC(=O)N[C@@H](Cc3c[nH]cn3)C(=O)N[C@@H](Cc3c[nH]cn3)C(=O)NCC(=O)N[C@@H](CCCNC(=N)N)C(=O)NCC(=O)N[C@@H](CC(=O)O)C(=O)O)CN2C(=O)[C@@H](NC(=O)COCCOCCOCCNC(=O)C[C@@H]2N=C(c3ccc(Cl)cc3)c3c(sc(C)c3C)-n3c(C)nnc32)C(C)(C)C)cc1

Activity [16]: Active
Activity [17]: 100%
Activity [19]: Active
Activity [21]: Active
solubility at 0.5 h [2]: 29.5 mM (≈ 30 mg/mL)
Activity [22]: 100%
Activity [4]: Active
Activity [23]: 100%
IC50 (MCF7 [6]): 0.03 µM
IC50 (MDA-MB-231 [7]): 0.09 µM
Activity [9]: Active
Activity [11]: Active
Activity [33]: 100%
Activity [12]: Active
Structure (SMILES): Cc1ncsc1-c1ccc([C@H](C)NC(=O)[C@@H]2C[C@@H](O)CN2C(=O)[C@@H](NC(=O)COCCOCCOCCNC(=O)C[C@@H]2N=C(c3ccc(Cl)cc3)c3c(sc(C)c3C)-n3c(C)nnc32)C(C)(C)C)cc1
Activity (MDA-MB-231 [14]): inactive
Activity [15]: Non-Toxic
Activity (L02 [18]): Active
Activity [20]: Non-Toxic
Activity [24]: Toxic
Activity [25]: Non-Toxic
Activity [26]: Non-Toxic
IC50 [27]: 2.1 µM
inhibition in vivo at 5 µM (MDA-MB-231 [28]): 36.3%
IC50 (L02 [10]): 0.4 µM
Activity [29]: Non-Toxic
Activity [30]: Non-Toxic
Activity (MCF7 [31]): Active
Activity [32]: Non-Toxic
